What was measured:
Assay type in all cases: biochemical
EGFR = biological target: T1, EGFR (Homo sapiens, UniProt P00533); experiment: Kinase inhibition assay (33P transfer), EGFR; conditions: Table 2, kinase inhibition class; read-out: EGFR-1
T1 construct: Kinases are expressed as either kinase domains or full length constructs; made in house
Procedure, shortened: (§1)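 Read-out: scintillation counts of 33P moved from ATP onto synthetic peptide polymer coated on the well surface, after washing with 0.5% phosphoric acid. Enzymes were tagged (GST or polyHistidine) and came from bacterial or insect-cell expression. IC50 marks 50% loss of incorporated label.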

Flt-1 = biological target: T2, Flt-1 (Homo sapiens, UniProt P17948); experiment: Kinase inhibition assay (33P transfer), Flt-1
T2 construct: Kinases are expressed as either kinase domains or full length constructs; made in house
Procedure, shortened: as §1

Tek = biological target: T3, Tek (Homo sapiens, UniProt Q02763); experiment: Kinase inhibition assay (33P transfer), Tek; conditions: read-out: Tek-1
T3 construct: Kinases are expressed as either kinase domains or full length constructs; made in house
Procedure, shortened: as §1

AKT = biological target: T4, AKT (Homo sapiens, UniProt Q9Y243); experiment: Kinase inhibition assay (33P transfer), AKT; conditions: Table 2, kinase inhibition class; read-out: AKT3-1
T4 construct: Kinases are expressed as either kinase domains or full length constructs; made in house
Procedure, shortened: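 Kinase domains or full-length kinases, GST- or His-tagged and expressed in E. coli or baculovirus/High Five cells, transferred 33PO4 from ATP onto plate-bound poly(Glu,Tyr) 4:1 or poly(Arg,Ser) 3:1. After incubation, plates were washed with 0.5% phosphoric acid and counted by liquid scintillation.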

EPHB4 = biological target: T5, EPHB4 (Homo sapiens, UniProt P54760); experiment: Kinase inhibition assay (33P transfer), EPHB4; conditions: read-out: EPHB4-1
T5 construct: Kinases are expressed as either kinase domains or full length constructs; made in house
T5 sequence (P54760 16-987): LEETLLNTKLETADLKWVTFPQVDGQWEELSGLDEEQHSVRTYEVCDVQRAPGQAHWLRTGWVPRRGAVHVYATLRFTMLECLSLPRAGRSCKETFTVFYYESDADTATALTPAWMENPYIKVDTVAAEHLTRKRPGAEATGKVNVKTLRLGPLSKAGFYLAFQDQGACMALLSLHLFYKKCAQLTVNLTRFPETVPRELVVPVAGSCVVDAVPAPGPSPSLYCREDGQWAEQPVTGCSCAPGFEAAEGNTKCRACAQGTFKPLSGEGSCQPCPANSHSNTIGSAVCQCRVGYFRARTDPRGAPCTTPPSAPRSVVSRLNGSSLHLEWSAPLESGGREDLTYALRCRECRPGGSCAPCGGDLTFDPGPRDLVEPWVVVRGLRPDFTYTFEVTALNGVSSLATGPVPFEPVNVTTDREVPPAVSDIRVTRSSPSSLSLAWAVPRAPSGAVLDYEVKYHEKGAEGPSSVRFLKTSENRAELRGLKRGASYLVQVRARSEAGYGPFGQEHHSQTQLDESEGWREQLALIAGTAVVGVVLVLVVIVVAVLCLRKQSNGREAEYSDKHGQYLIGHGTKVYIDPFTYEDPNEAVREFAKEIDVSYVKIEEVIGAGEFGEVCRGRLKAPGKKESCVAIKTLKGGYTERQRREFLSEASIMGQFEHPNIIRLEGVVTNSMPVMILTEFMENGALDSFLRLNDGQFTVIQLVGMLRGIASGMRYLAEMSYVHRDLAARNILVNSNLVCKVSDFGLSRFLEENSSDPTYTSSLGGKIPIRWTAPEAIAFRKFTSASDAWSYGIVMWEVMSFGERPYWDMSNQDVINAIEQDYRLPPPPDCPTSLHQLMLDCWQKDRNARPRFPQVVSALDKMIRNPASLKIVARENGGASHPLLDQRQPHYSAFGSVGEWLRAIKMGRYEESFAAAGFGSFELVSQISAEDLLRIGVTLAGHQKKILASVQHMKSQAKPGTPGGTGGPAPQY

Hck-1 = biological target: T6, Hck-1 (Homo sapiens, UniProt P08631); experiment: Kinase inhibition assay (33P transfer), Hck; conditions: Table 6, Hck-1 kinase inhibition class
T6 construct: Kinases are expressed as either kinase domains or full length constructs; made in house

ErbB2 = biological target: T7, ErbB2 (Homo sapiens, UniProt P04626); experiment: Kinase inhibition assay (33P transfer), ErbB2; conditions: read-out: ErbB2-2
T7 construct: Kinases are expressed as either kinase domains or full length constructs; made in house
Procedure, shortened: as §1

Ret-1 = biological target: T8, Ret-1 (Homo sapiens, UniProt P07949); experiment: Kinase inhibition assay (33P transfer), Ret; conditions: Table 6, Ret-1 kinase inhibition class
T8 construct: Kinases are expressed as either kinase domains or full length constructs; made in house

PDGFRB = biological target: T9, PDGFRB (Homo sapiens, UniProt P09619); experiment: Kinase inhibition assay (33P transfer), PDGFRB; conditions: read-out: PDGFRB-1
T9 construct: Kinases are expressed as either kinase domains or full length constructs; made in house

T4 sequence (Q9Y243 whole entry, the tested form may be a part): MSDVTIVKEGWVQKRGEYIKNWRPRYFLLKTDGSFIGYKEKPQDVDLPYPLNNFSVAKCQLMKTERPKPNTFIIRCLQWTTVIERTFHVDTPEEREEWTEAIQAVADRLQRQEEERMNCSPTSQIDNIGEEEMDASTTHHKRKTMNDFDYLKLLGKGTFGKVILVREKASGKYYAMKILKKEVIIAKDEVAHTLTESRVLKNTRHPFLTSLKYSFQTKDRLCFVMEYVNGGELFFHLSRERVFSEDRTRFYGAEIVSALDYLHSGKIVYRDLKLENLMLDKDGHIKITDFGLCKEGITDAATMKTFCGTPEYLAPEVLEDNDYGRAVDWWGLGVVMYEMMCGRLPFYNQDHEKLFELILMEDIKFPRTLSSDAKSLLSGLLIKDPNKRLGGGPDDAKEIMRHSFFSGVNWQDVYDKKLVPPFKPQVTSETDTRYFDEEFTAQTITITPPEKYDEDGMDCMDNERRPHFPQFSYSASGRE
T1 sequence (P00533 25-1210, species assumed): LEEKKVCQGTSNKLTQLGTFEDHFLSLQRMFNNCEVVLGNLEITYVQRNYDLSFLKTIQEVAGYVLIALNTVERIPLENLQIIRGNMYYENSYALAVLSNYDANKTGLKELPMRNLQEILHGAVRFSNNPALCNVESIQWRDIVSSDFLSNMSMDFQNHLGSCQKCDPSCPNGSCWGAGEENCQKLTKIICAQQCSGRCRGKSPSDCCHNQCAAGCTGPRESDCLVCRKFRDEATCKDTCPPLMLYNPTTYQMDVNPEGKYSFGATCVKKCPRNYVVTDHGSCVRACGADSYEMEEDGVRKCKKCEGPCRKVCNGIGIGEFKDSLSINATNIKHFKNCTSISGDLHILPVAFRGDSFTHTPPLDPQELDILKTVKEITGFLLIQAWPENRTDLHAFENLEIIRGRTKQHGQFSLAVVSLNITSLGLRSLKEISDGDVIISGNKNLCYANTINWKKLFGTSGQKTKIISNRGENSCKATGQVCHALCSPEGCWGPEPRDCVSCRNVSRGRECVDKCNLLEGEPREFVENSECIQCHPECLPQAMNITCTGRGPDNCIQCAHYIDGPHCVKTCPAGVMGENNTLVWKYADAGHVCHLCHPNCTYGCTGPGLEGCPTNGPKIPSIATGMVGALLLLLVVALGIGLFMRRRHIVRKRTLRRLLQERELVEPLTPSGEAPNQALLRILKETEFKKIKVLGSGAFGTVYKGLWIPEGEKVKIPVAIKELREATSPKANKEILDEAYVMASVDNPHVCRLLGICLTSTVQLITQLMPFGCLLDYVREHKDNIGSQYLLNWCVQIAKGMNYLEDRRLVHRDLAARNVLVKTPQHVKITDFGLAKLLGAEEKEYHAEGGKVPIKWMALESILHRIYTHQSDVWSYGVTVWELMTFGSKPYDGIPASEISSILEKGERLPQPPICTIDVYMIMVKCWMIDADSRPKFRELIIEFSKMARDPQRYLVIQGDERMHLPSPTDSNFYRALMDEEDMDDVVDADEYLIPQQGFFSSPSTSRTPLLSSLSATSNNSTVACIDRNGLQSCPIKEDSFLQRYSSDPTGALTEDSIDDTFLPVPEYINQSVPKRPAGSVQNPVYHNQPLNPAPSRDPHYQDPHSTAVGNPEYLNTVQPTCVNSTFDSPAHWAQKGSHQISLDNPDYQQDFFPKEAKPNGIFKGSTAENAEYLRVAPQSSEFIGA
T7 sequence (P04626 23-1255, species assumed): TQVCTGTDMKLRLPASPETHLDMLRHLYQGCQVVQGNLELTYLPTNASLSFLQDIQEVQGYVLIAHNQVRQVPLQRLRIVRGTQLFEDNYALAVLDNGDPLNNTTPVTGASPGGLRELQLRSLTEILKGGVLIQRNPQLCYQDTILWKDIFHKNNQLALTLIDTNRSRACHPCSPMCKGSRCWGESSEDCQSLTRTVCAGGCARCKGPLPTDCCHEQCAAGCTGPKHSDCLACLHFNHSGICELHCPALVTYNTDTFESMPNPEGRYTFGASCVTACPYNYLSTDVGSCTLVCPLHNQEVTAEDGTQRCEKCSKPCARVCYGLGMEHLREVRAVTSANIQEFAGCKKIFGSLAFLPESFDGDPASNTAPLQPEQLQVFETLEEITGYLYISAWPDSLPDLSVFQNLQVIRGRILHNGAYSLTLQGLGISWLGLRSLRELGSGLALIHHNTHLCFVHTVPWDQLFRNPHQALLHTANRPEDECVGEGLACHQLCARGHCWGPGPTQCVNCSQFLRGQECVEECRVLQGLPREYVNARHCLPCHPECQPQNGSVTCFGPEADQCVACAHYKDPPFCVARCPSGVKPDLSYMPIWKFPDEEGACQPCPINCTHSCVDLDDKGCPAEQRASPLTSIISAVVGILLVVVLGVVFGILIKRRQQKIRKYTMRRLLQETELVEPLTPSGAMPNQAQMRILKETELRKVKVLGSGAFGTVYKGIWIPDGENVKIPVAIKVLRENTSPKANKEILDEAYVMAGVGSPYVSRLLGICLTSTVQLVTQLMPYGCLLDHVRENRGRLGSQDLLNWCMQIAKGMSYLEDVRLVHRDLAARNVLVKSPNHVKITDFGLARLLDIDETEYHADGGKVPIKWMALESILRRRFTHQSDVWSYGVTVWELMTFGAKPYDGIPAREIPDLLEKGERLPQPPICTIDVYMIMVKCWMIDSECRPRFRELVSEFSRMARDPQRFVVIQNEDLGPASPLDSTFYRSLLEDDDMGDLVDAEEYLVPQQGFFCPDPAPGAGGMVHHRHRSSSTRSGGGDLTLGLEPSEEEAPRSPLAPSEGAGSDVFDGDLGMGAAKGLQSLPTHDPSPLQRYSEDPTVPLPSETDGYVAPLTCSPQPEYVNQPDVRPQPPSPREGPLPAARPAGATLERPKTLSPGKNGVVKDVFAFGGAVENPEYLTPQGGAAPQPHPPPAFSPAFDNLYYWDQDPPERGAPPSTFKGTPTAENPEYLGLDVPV
T2 sequence (P17948 27-1338, species assumed): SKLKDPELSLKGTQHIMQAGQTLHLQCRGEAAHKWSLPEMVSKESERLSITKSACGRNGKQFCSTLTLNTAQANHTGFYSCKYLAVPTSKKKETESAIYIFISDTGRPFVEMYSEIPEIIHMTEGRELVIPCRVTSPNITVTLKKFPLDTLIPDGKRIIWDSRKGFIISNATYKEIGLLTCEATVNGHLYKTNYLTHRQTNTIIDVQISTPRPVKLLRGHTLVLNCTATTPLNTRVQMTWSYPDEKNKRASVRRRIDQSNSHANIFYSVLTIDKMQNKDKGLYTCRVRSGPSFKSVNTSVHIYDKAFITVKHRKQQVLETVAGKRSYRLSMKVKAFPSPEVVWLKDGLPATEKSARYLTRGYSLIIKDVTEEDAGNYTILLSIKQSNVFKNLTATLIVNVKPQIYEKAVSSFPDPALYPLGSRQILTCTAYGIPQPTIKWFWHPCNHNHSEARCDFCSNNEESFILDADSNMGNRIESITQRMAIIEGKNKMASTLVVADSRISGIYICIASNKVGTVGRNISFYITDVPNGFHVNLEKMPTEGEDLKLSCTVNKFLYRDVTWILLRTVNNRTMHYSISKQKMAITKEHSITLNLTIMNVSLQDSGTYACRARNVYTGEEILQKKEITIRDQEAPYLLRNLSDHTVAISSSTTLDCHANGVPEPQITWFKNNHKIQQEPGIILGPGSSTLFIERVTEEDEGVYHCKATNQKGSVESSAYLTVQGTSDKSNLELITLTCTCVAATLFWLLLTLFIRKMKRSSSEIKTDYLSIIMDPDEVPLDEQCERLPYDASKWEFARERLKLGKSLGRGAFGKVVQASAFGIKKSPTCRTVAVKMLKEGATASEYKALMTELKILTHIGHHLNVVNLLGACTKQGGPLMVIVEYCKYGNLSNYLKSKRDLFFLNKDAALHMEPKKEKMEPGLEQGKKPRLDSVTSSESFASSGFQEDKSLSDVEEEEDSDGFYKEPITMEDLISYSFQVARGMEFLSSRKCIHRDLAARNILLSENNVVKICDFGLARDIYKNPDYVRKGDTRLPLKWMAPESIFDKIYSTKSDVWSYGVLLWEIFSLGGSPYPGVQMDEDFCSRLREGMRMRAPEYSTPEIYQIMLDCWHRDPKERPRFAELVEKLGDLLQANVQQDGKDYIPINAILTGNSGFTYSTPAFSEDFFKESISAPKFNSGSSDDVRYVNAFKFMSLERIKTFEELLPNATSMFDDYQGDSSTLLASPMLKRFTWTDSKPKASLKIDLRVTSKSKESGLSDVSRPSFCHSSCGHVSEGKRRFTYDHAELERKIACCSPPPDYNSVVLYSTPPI
T6 sequence (P08631 whole entry, the tested form may be a part): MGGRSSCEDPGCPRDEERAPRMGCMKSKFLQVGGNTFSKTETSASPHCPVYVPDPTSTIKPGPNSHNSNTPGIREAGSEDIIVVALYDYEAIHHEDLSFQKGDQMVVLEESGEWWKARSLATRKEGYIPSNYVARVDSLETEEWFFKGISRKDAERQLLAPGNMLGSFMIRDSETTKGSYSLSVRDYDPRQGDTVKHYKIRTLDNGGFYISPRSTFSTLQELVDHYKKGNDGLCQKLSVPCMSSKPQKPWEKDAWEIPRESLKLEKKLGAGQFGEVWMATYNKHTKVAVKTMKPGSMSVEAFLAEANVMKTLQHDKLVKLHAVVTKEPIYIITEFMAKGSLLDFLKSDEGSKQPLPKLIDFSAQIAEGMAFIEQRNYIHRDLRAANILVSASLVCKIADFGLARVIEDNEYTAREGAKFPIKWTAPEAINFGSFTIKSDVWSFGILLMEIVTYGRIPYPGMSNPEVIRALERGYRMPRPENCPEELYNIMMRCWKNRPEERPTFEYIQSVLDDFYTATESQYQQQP

Compound | IC50 (EGFR) [µM] | IC50 (Flt-1) [nM] | IC50 (Tek) [µM] | IC50 (AKT) [µM] | IC50 (EPHB4) [µM] | IC50 (Hck-1) [µM] | IC50 (ErbB2) [µM] | IC50 (Ret-1) [µM] | IC50 (PDGFRB) [nM]
COc1cc(Nc2ncnc(-n3c(Nc4cccc(C(N)=O)c4)nc4ccccc43)n2)cc(OC)c1OC [Compound 377] | > 8.78 | < 780 | 6.83 to 8.78 | > 8.78 | 0.78 to 4.68 | > 8.78 |  |  | 
COc1cc(Nc2ncnc(-c3c(O)[nH]c4ccccc34)n2)cc(OC)c1OC [Compound 380] | > 11.4 | < 1020 | > 11.4 | > 11.4 | > 11.4 | > 11.4 |  |  | 
COc1cc(Nc2ncnc(Nc3cc(C)[nH]n3)n2)cc(OC)c1OC [Compound 88] | 9.79 to 12.6 |  | > 12.6 | > 12.6 | 1.12 to 6.72 | 9.79 to 12.6 |  |  | 
COc1cc(Nc2ncnc(Nc3ccc(Cl)cc3)n2)cc(OC)c1OC [Compound 72] | 1.03 to 6.19 | < 1030 | > 11.6 | > 11.6 | 1.03 to 6.19 |  | 1.03 to 6.19 | < 1.03 | 
COc1cc(Nc2ncnc(-n3c(Nc4ccc(F)cc4)nc4ccccc43)n2)cc(OC)c1OC [Compound 387] | > 9.23 | < 821 | > 9.23 | > 9.23 | > 9.23 | > 9.23 |  |  | 
C#Cc1cccc(Nc2ncnc(Nc3cc(OC)c(OC)c(OC)c3)n2)c1 [Compound 74] | < 1.06 |  | > 11.9 | > 11.9 | < 1.06 | > 11.9 |  |  | 
COc1cccc(-c2ncnc(Nc3cc(OC)c(OC)c(OC)c3)n2)c1 [Compound 232] | 6.51 to 9.5 |  | > 12.2 | > 12.2 | > 12.2 | > 12.2 |  |  | 
COc1cc(Nc2ncnc(Nc3ccc(N(C)C)cc3)n2)cc(OC)c1OC [Compound 27] | 6.05 to 8.83 | < 1010 |  | > 11.4 | > 11.4 | > 11.4 |  | 1.01 to 6.05 | 
COc1cc(Nc2ncnc(N(c3ccc(Cl)cc3)c3nc4ccccc4[nH]3)n2)cc(OC)c1OC [Compound 374] | < 0.794 | 794 to 4760 | 0.794 to 4.76 | > 8.93 | < 0.794 | 6.95 to 8.93 |  |  | 
COC(=O)c1cccc(Nc2nc3ccccc3n2-c2ncnc(Nc3cc(OC)c(OC)c(OC)c3)n2)c1 [Compound 383] | > 8.53 |  | 4.55 to 6.63 | > 8.53 | > 8.53 |  | 4.55 to 6.63 |  | < 758
COc1cc(Nc2ncnc(Nc3ccc(N4CCOCC4)cc3)n2)cc(OC)c1OC [Compound 101] | > 10.3 |  | 7.98 to 10.3 | > 10.3 | > 10.3 | > 10.3 |  |  | 
COc1cc(Nc2ncnc(Nc3cc(OC)c(OC)c(OC)c3)n2)cc(OC)c1OC [Compound 76] | 7.89 to 10.1 |  | > 10.1 | > 10.1 | 0.902 to 5.41 | > 10.1 |  |  | 
COc1cc(Nc2ncnc(Nc3cc(-c4ccc(Cl)cc4)n[nH]3)n2)cc(OC)c1OC [Compound 367] | 5.29 to 7.71 | 881 to 5290 | 7.71 to 9.91 | > 9.91 | 0.881 to 5.29 | > 9.91 |  |  | 
COc1cc(Nc2ncnc(-n3c(Nc4ccc5[nH]ccc5c4)nc4ccccc43)n2)cc(OC)c1OC [Compound 376] | 6.88 to 8.85 | < 787 | 0.787 to 4.72 | > 8.85 | 6.88 to 8.85 | > 8.85 | 4.72 to 6.88 |  | 
NC(=O)c1cccc(Nc2ncnc(-n3c(N)nc4ccccc43)n2)c1 [Compound 395] | > 13 | < 1150 | 1.15 to 6.93 | 10.1 to 13 | > 13 | > 13 |  |  | 
COc1cc(Nc2ncnc(Nc3cc(-c4ccccc4)nn3C)n2)cc(OC)c1OC [Compound 394] | 8.07 to 10.4 | < 923 | > 10.4 | > 10.4 | 5.54 to 8.07 | > 10.4 |  |  | 
COc1cc(Nc2ncnc(-n3c(Cl)nc4ccccc43)n2)cc(OC)c1OC [Compound 378] | > 10.9 | 969 to 5810 | 8.48 to 10.9 | > 10.9 | > 10.9 | > 10.9 |  |  | 
COc1cc(Nc2ncnc(Nc3cc(-c4ccco4)n[nH]3)n2)cc(OC)c1 [Compound 365] | 1.05 to 6.33 | 1050 to 6330 | > 11.9 | 6.33 to 9.23 | 1.05 to 6.33 | > 11.9 |  |  | 
COc1cc(Nc2ncnc(Nc3ccc4c(c3)Cc3ccccc3-4)n2)cc(OC)c1OC [Compound 95] | > 10.2 |  | > 10.2 | > 10.2 | 7.93 to 10.2 | > 10.2 |  |  | 
COc1cc(Nc2ncnc(-n3c(NCc4ccccc4)nc4ccccc43)n2)cc(OC)c1OC [Compound 371] | 4.96 to 7.24 | < 827 | > 9.31 | > 9.31 | < 0.827 | > 9.31 | > 9.31 |  | 
COc1cc(Nc2ncnc(Nc3ccc(F)c(Cl)c3)n2)cc(OC)c1OC [Compound 61] | < 0.986 | < 986 |  | > 11.1 | < 0.986 | > 11.1 |  | > 11.1 | 
COc1cc(Nc2ncnc(-n3c(Nc4ccccc4C)nc4ccccc43)n2)cc(OC)c1OC [Compound 384] | 7.24 to 9.31 | > 9310 | > 9.31 | > 9.31 | 0.827 to 4.96 | > 9.31 |  |  | 
COc1cc(Nc2ncnc(-n3c(Nc4ccc(C(C)C)cc4)nc4ccccc43)n2)cc(OC)c1OC [Compound 388] | > 8.8 | > 8800 | > 8.8 | > 8.8 | > 8.8 | > 8.8 |  |  | 
COc1cc(Nc2ncnc(-c3ccnc(NCCCO)c3)n2)cc(OC)c1OC [Compound 180] | > 10.9 | > 10900 | > 10.9 | > 10.9 | > 10.9 | > 10.9 |  |  | 
COc1cc(Nc2ncnc(NC(=O)Nc3ccccc3)n2)cc(OC)c1OC [Compound 852] | > 11.4 | > 11400 |  | > 11.4 | > 11.4 | > 11.4 | 6.05 to 8.83 | 6.05 to 8.83 | 
COc1cc(Nc2ncnc(-n3c(Nc4ccc(C)cc4)nc4ccccc43)n2)cc(OC)c1OC [Compound 385] | > 9.31 | < 827 | > 9.31 | > 9.31 | > 9.31 | > 9.31 |  |  | 
COc1cc(Nc2ncnc(-n3c(Nc4cccc(C)c4)nc4ccccc43)n2)cc(OC)c1OC [Compound 386] | > 9.31 | < 827 | > 9.31 | > 9.31 | > 9.31 | > 9.31 |  |  | 
NC(=O)c1ccc(Nc2ncnc(-n3c(N)nc4ccccc43)n2)cc1 [Compound 396] | 6.93 to 10.1 | < 1150 | 1.15 to 6.93 | 6.93 to 10.1 | 1.15 to 6.93 | 6.93 to 10.1 |  |  | 
COc1cc(Nc2ncnc(-n3c(Nc4cccc(C(=O)O)c4)nc4ccccc43)n2)cc(OC)c1OC [Compound 390] | 6.82 to 8.76 | 779 to 4670 | 4.67 to 6.82 | 0.779 to 4.67 | > 8.76 | > 8.76 |  |  | 
COc1cc(Nc2ncnc(Nc3ccc(Br)cc3)n2)cc(OC)c1OC [Compound 82] | 0.925 to 5.55 | < 925 | > 10.4 | > 10.4 | 0.925 to 5.55 |  |  | 0.925 to 5.55 | 
